Tests used:
[1] = system: neutrophils isolated from the bone marrow of WT mice; assay: CXCL2-induced chemotactic migration of LPS-stimulated neutrophils; assay type: cell-based; conditions: LPS 1 μg/ml, FIG. 20B
CXCR2 = CXCR2 surface expression in LPS-stimulated neutrophils (flow cytometry); assay type: cell-based, mice; conditions: WT neutrophils, LPS 1 μg/ml; FIG. 17D, FIG. 20A
GRK2 = assay: LPS-induced GRK2 level in neutrophils (western blotting); assay type: cell-based, mice; conditions: WT neutrophils, LPS 1 μg/ml; CAY10594 at 10 μM; FIG. 18B, FIG. 19
Description: First, neutrophils were isolated from the bone marrow of WT or PLD2 knockout (KO) mice and stimulated with 1 μg/ml of LPS for 1 hour, and then GRK2 levels were analyzed by western blotting.
Afterward, neutrophils isolated from the bone marrow of the WT mice were cultured with 10 μM of a vehicle (0.5% Tween 80 in PBS) or a PLD2 inhibitor (CAY10594) before being cultured with LPS (1 μg/ml), and then GRK2 levels were analyzed by western blotting.
The control of LPS-induced GRK2 expression by an inhibitor for an intracellular signaling pathway (BAY11-7082) was analyzed by western blotting.

PLD2 knockout (KO) mice = assay: Survival rate of PLD2 knockout (KO) mice after CLP surgery with CXCR2 antagonist treatment; assay type: in vivo; conditions: treated with the CXCR2 antagonist, FIG. 21
Description: (§1) C57Bl/6 mice were obtained from Orient Bio (Seongnam, Korea). PLD2 knockout (KO) mice were prepared by the method described in a previous study (Ghim, J., J. S. Moon, C. S. Lee, J. Lee, P. Song, A. Lee, J. H. Jang, D. Kim, J. H. Yoon, Y. J. Koh, C. Chelakkot, B. J. Kang, J. M. Kim, K. L. Kim, Y. R. Yang, Y. Kim, S. H. Kim, D. Hwang, P. G. Suh, G. Y. Koh, Y. Y. Kong, and S. H. Ryu, 2014, “Endothelial deletion of phospholipase D2 reduces hypoxic response and pathological angiogenesis,” Arterioscler. Thromb. Vasc. Biol., 34:1697-1703.) All experiments involving animals received the approval of the Institutional Review Committee for Animal Care and Use at the medical school of Sungkyunkwan University. Cecal ligation and puncture (CLP) sepsis models were prepared by the method described in a previous study (Kim, S. D., H. Y. Lee, J. W. Shim, H. J. Kim, Y. H. Yoo, J. S. Park, S. H. Baek, B. A. Zabel, and Y. S. Bae, 2011, “Activation of CXCR2 by extracellular matrix degradation product acetylated Pro-Gly-Pro has therapeutic effects against sepsis,” Am. J. Respir. Crit. Care Med., 184:243-251.) That is, mice were anesthetized with 50 mg/kg of Zoletil and 10 mg/kg of Rompun through intraperitoneal injection, and an abdominal midline incision was made to expose the cecum. […]

WT neutrophils = assay: Ionomycin-induced intracellular calcium mobilization (Fura-2/AM); assay type: cell-based, mice; conditions: 10 μM before 5 μM ionomycin, FIG. 15
Description: Subsequently, for individual analysis, the cells were aliquoted (2×10^6 cells/1 ml of Locke's solution containing 154 mM NaCl, 5.6 mM KCl, 1.2 mM MgCl2, 5 mM HEPES [pH 7.3], 10 mM glucose, and 2 mM CaCl2). Afterward, the cells were stimulated with 5 μM ionomycin. Meanwhile, to check the case of the treatment with a PLD2 inhibitor, the cells aliquoted from the WT mouse were cultured with 10 μM of a vehicle (0.5% Tween 80 in PBS) or a PLD2 inhibitor (CAY10594) before being stimulated with ionomycin. A fluorescence change at an emission wavelength of 500 nm was measured using an RF-5301PC spectrofluorophotometer (Shimadzu Instruments Inc., Kyoto, Japan) at excitation wavelengths of 340 nm and 380 nm A [Ca^2+]i increase causes an increase in the fluorescence ratio at an excitation efficiency of 340 to 380 nm, and [Ca^2+]i was calculated using the fluorescence ratio according to Equation 5 of Grynkiewicz et al (Grynkiewicz et al., 1985).

[2] = system: spleen cells isolated from the WT mice; assay: LPS-induced inflammatory cytokine/chemokine production in spleen cells (ELISA); assay type: cell-based; conditions: 10 μM for 30 minutes before LPS (1 μg/ml) for 24 hours; compared with vehicle; FIG. 5B
Description: Spleen cells (3×10^6 cells/0.3 ml) isolated from WT or PLD2 knockout (KO) mice were cultured in RPMI 1640 medium containing 5% fetal bovine serum (FBS) in 96-well plates and placed in a 5% CO2 incubator at 37° C. Afterward, the spleen cells were incubated with LPS (1 μg/ml) for 24 hours, and the expression of cytokines and chemokines in the spleen cells was measured by ELISA (e-Bioscience, San Diego, Calif.).
Additionally, to examine the effect of a PLD2 inhibitor on cytokine and chemokine production, before additional culturing with LPS (1 μg/ml) for 24 hours, the spleen cells isolated from the WT mice were cultured with 10 μM of a vehicle (0.5% Tween 80 in PBS) or a PLD2 inhibitor (CAY10594) for 30 minutes. A cell-free supernatant was collected and centrifuged, and the cytokines and the chemokines were detected by ELISA (e-Bioscience, San Diego, Calif.) according to the manufacturer's instructions.

[3] = system: neutrophils isolated from the bone marrow of the WT mice; assay: NET formation in ionomycin-stimulated neutrophils (SYTOX Green staining); assay type: cell-based; conditions: 10 μM, then 5 μM ionomycin, FIG. 10B
Description: Neutrophils were isolated from the bone marrow of the WT or PLD2 knockout (KO) mice. More particularly, bone marrow cells were isolated from a femur and a tibia using an HBSS-EDTA solvent. A cell suspension was centrifuged at 400 g for 10 minutes, resuspended cells were loaded onto 52%, 69%, and 78% Percoll gradients, and centrifuged at 1500 g for 30 minutes without breaking. The cells were isolated on a 69%/78% interface layer, and RBCs were removed by hypotonic lysis. 95% or more of the isolated cells were identified to be Ly6G-positive using a flow cytometer. The isolated neutrophils (1×10^5 cells) were seeded on 0.001% poly-lysine-coated 12-mm cover slips of 24-well plates, and stimulated with 5 μM ionomycin. Afterward, the cells were fixed with 4% paraformaldehyde and stained by SYTOX Green nucleic acid staining (5 μM). The NET was visualized using a Zeiss Axiovert fluorescent microscope (Zeiss, Oberkochen, Germany), and images were taken by a Nikon Digital camera.
Additionally, to confirm the variations of NET formation when a PLD2 inhibitor was treated, neutrophils isolated from the bone marrow of the WT mice were cultured with 10 μM of a vehicle (0.5% Tween 80 in PBS) or a PLD2 inhibitor (CAY10594), and then stimulated with 5 μM ionomycin.

CLP mice = assay: Survival rate in CLP-induced sepsis models, WT mice; assay type: in vivo; conditions: WT mice after CLP surgery; 10 mg/kg subcutaneous at 2, 14, 26 and 38 hours; monitored for 10 days; FIG. 1B
Description: as §1

Row | Compound | CXCL2-induced chemotactic migration of the neutrophils by LPS stimulation [1] | downregulation of LPS-induced CXCR2 (CXCR2) | upregulation of LPS-induced GRK2 / LPS-induced GRK2 expression (GRK2) | survival of PLD2 knockout (KO) mice after CLP surgery (PLD2 knockout (KO) mice) | ionomycin-induced intracellular calcium mobilization (WT neutrophils) | CCL5 secretion [2] | CXCL1 secretion [2] | IL-1β secretion [2] | IL-6 secretion [2] | TNF-α secretion [2] | NET formation caused by ionomycin stimulation [3] | survival rate (CLP mice) [%]
1 | Cc1ccc(S(=O)(=O)/C=C/C#N)cc1 [BAY11-7082] | partially but significantly recovered | significantly diminished | completely inhibited | – | – | – | – | – | – | – | – | –
2 | O=C(Nc1ccc([N+](=O)[O-])cc1O)Nc1ccccc1Br [SB225002] | – | – | – | all of the mice died | – | – | – | – | – | – | – | –
3 | O=C(NCCN1CCC2(CC1)C(=O)NCN2c1ccccc1)c1ccc2ccccc2c1 [CAY10594, N-[2-(4-oxo-1-phenyl-1,3,8-triazaspiro[4,5]decan-8-yl)ethyl]-2-naphthalenecarboxamide] | – | recovered | blocked | – | improved | considerably decreased | considerably decreased | considerably decreased | considerably decreased | considerably decreased | increased | 40

Reference: patent US20160271114A1, “Composition for preventing or treating bacterial infectious disease comprising phospholipase D2 inhibitor” (RESEARCH & BUSINESS FOUNDATION SUNGKYUNKWAN UNIVERSITY, priority 2015, published 2016)
